According to article PMC9612231, “Antileishmanial Anthracene Endoperoxides: Efficacy In Vitro, Mechanisms and Structure-Activity Relationships” (Molecules, 2022):

Key:
LtP = test: Cellular oxygen consumption of LtP (OxoPlates); format: cell-based, Leishmania tarentolae; conditions: 200 µM compound, 140 × 10^6 cells/mL
Description: (§1) The experimental data so far indicate that in more complex EP not only the endoperoxyl group contributes to its pharmacological actions. Therefore, mitochondria present in the parasites but also in the host cells could be either a trigger for activating pharmacological actions of these compounds or a target of EP-derived radicals generated at other sites in the cell. In a subsequent experiment, we tested the influence of AcEP and non-endoperoxidic analogs (Ac) on the mitochondrial oxygen consumption in LtP and J774 macrophages (Figure 9).
(§2) Oxygen consumption rates of LtP in complete BHI culture medium and J774 in PBS-gluc treated with AcEPs were measured using round-bottomed OxoPlates (OP96U, Precision Sensing GmbH, Regensburg, Germany). […] Then, the fluorescence of both calibration media was measured at a microplate reader (Perkin Elmer EnSpire, Rodgau, Germany) in a dual kinetic mode, using an excitation wavelength of 540 nm for both dyes and emission wavelengths of 650 nm for the indicator dye and 590 nm for the reference dye. The ratio of both fluorescence intensities (IR) was calculated for each well and averaged giving the two calibration constants k0 (oxygen-free) or k100 (air-saturated). […] Both fluorescence intensities of each well were determined in 5 min intervals over up to 40 min. Each compound was measured in quadruplicates. […]

J774 macrophages = test: Cellular oxygen consumption of J774 cells (OxoPlates); format: cell-based, murine; conditions: 200 µM compound, 2 × 10^6 cells/mL
Description: as §1, §2

Structure (SMILES) | Inhibition of mitochondrial oxygen consumption in LtP (LtP) | Inhibition of mitochondrial oxygen consumption in J774 macrophages (J774 macrophages)
CC(C)(C)c1ccc2c(c1)C1(c3cccnc3)OOC2(c2cccnc2)c2ccccc21 (stereo not drawn) [mPyBuAcEP] | interfered strongly | more moderate
CC(C)(C)c1ccc2c(-c3cccnc3)c3ccccc3c(-c3cccnc3)c2c1 [mPyBuAc] | even stronger inhibition | 
